Read-outs that look alike come from different tables or passages of the source.
How the values were obtained:
[1] = tested on: A. baumannii Pop1 and Pop2 strains; assay: Time kill curves in CAMHB with 0.1 mM PIH; format: cell-based, Acinetobacter baumannii
Method: Based on the data of EXAMPLE 1, the bactericidal activity and the resistance development of rifabutin and of fixed rifabutin/polymyxin concentrations was assessed in time-kill curve experiments. […] FIGS. 3 and 4 show kill curve experiments on two different A. baumannii strains (Pop 1 and Pop2) having very different rifabutin MICs.
Based on the data of EXAMPLE 2, the bactericidal activity and the resistance development of rifabutin/polymyxin B was assessed in time kill curve experiments using a lower concentration of rifabutin and additional strains. Concentrations were fixed at 0.03 mg/L for rifabutin (on average, one thirty-second the rifabutin MIC90), and at 0.125 or 0.06 mg/L for polymyxin B (one fourth and one eighth the fCtrough of polymyxin B).
Time-kill kinetics were performed in CAMHB supplemented with 0.1 mM PIH medium. Rifabutin was tested at 0.25 mg/L with or without the specified concentration of a polymyxin agent. Samples were taken at 0, 2, 4, 8 and 24 hours in order to determine the colony forming units (cfu). Bactericidal activity is defined as ≥3-log reduction in cfu compared to the cfu present in the inoculum (0 hours).

[2] = tested on: carbapenem-resistant Acinetobacter baumannii (CRAB); settings: MHA/PIH, cited from earlier work
[3] = tested on: A. baumannii clinical isolates; assay: Rifabutin MIC with a fixed polymyxin concentration, broth microdilution in CAMHB/PIH; format: cell-based, Acinetobacter baumannii
Method: (§1) The MIC90 (the maximum Minimal Inhibitory Concentration which inhibits growth of 90% of the strains of a test panel) of rifabutin is 2 or 1 mg/L when tested respectively in RPMI/FCS for broth microdilution or MHA/PIH for agar dilution against a panel of 293 carbapenem-resistant Acinetobacter baumannii (CRAB) (Trebosc V, et al. 2020. In vitro activity of rifabutin against 293 contemporary carbapenem-resistant Acinetobacter baumannii clinical isolates and characterization of rifabutin mode of action and resistance mechanisms. J Antimicrob Chemother. 75(12):3552-3562, incorporated herein by reference). […] At these respective polymyxin concentrations, no strains, 3% of the strains, and <5% of the strains would be susceptible to the respective polymyxin. FIG. 1 illustrates the cumulative index and MIC50 and MIC90 of rifabutin in the presence of members of the polymyxin family of antibiotics at sub MIC (sub trough concentrations) showing the synergistic effect discussed above.
(§2) In vitro activity of rifabutin against 293 contemporary carbapenem-resistant Acinetobacter baumannii clinical isolates and characterization of rifabutin mode of action and resistance mechanisms. J Antimicrob Chemother. 75(12):3552-3562, incorporated herein by reference in its entirety). […] FIG. 2 illustrates the MIC distribution of rifabutin in the presence of members of the polymyxin family of antibiotics at sub MIC (sub trough concentrations) showing the synergistic effect discussed above.
The rifabutin MICs in combination with a fixed concentration of the specified polymyxin were determined by broth microdilution method according to the CLSI guideline. The medium used to determine the MICs was cation-adjusted Muller Hinton broth (CAMHB) supplemented with 0.1 mM of pyridoxal isonicotinoyl hydrazone (PIH). […] Accordingly, the MIC values were set at the first lowest rifabutin concentration preventing growth as assessed by visual inspection of the assay plate.

[4] = tested on: A. baumannii Pop1 and Pop2 strains; assay: Rifabutin MIC of the strains used for time-kill curves; format: cell-based; settings: Acinetobacter baumannii
[5] = tested on: carbapenem-resistant Acinetobacter baumannii (CRAB); settings: RPMI/FCS, broth microdilution, panel of 293 CRAB; cited from earlier work
[6] = tested on: A. baumannii clinical isolates; assay: Susceptibility of panel strains to the polymyxin alone; format: cell-based, Acinetobacter baumannii; settings: for number of strains with MIC>2 mg/L towards the polymyxin: polymyxin alone; for strains susceptible to the polymyxin at the fixed concentration: polymyxin alone at 0.125 mg/L
Method: as §1, §2

[7] = Example 2, colistin or polymyxin B alone at 0.125 or 0.03 mg/L, Pop 1 and Pop2 strains

CO[C@H]1/C=C/O[C@@]2(C)Oc3c(C)c(O)c4c(c3C2=O)C2=NC3(CCN(CC(C)C)CC3)NC2=C(NC(=O)/C(C)=C\C=C\[C@H](C)[C@H](O)[C@@H](C)[C@@H](O)[C@@H](C)[C@H](OC(C)=O)[C@@H]1C)C4=O [rifabutin, Rifabutin]
bactericidal activity in time-kill curves ([1]; Example 2, rifabutin alone at 0.25 mg/L, Pop 1 and Pop2 strains): either poorly bactericidal or allow for regrowth | bactericidal activity in time-kill curves ([1]; Example 3, rifabutin alone at 0.03 mg/L, Pop1 and Pop2 strains): either poorly bactericidal or allowed for regrowth | strains in population 1 (rifabutin MICs<0.125 mg/L) ([2]; 293 CRAB): 72% | strains in population 2 (rifabutin MICs≥0.125 to <16 mg/L) ([2]; 293 CRAB): 27% | strains in population 3 (rifabutin MICs≥16 mg/L) ([2]; 293 CRAB): 1% | MIC90 of rifabutin ([2]; agar dilution, panel of 293 CRAB): 1 mg/L | strains having a rifabutin MIC≤1 mg/L in the presence of a polymyxin ([3]; CAMHB/PIH broth microdilution, about one-quarter of the fCtrough of the polymyxin): 99% | MIC90 of rifabutin in the presence of a polymyxin ([3]; CAMHB/PIH broth microdilution, with 0.125 mg/L polymyxin B, 0.125 mg/L colistin or 0.03 mg/L SPR206 (about one-quarter of fCtrough)): 0.06 to 0.25 mg/L | fold lowering of rifabutin MIC90 in the presence of a polymyxin ([3]; subinhibitory concentrations of a polymyxin antibiotic): up to 32 fold | MIC ([4]; A. baumannii Pop 1 strain of FIG. 3): 0.016 mg/L | MIC ([4]; A. baumannii Pop2 strain of FIG. 4): 1 mg/L | MIC ([4]; ATCC17978, Pop 1 strain ATCC 17978): 0.008 mg/L | MIC ([4]; Pop 1 strain HUMC1): 0.002 mg/L | MIC ([4]; Pop2 strain LAC-4): 1 mg/L | MIC ([4]; Pop2 strain UNT238-1): 2 mg/L | MIC90 of rifabutin [5]: 2 mg/L

SPR206 acetate
bactericidal activity in time-kill curves ([1]; Example 2, SPR206 alone at 0.03 mg/L, Pop 1 and Pop2 strains): either poorly bactericidal or allow for regrowth | number of strains with MIC>2 mg/L towards the polymyxin [6]: 18 strains

colistin sulfate
bactericidal activity in time-kill curves [1, 7]: either poorly bactericidal or allow for regrowth | number of strains with MIC>2 mg/L towards the polymyxin [6]: 45 strains | strains susceptible to the polymyxin at the fixed concentration [6]: 3%

polymyxin B sulfate
bactericidal activity in time-kill curves [1, 7]: either poorly bactericidal or allow for regrowth | bactericidal activity in time-kill curves ([1]; Example 3, polymyxin B alone at 0.125 or 0.06 mg/L, Pop1 and Pop2 strains): either poorly bactericidal or allowed for regrowth | number of strains with MIC>2 mg/L towards the polymyxin [6]: 40 strains | strains susceptible to the polymyxin at the fixed concentration [6]: no strains
